Literature values in PMC3184248 (Angewandte Chemie (International ed. in English), 2011).

What was measured:
[1] = 1.5T, 37 °C
[2] = 1.5T, 37 °C; remark: listed apart in the source

GdDTPA
relaxivity in buffer [1]: 3.3 mM⁻¹ s⁻¹
relaxivity in plasma [2]: 4.1 mM⁻¹ s⁻¹
